Source: the Kinase Knowledgebase extract (Sharma et al. 2016)
In brackets after ≈: the same amount, converted by molar mass.

molecular target: EGFR (UniProt P00533)
Sequence (P00533 whole entry, looked up): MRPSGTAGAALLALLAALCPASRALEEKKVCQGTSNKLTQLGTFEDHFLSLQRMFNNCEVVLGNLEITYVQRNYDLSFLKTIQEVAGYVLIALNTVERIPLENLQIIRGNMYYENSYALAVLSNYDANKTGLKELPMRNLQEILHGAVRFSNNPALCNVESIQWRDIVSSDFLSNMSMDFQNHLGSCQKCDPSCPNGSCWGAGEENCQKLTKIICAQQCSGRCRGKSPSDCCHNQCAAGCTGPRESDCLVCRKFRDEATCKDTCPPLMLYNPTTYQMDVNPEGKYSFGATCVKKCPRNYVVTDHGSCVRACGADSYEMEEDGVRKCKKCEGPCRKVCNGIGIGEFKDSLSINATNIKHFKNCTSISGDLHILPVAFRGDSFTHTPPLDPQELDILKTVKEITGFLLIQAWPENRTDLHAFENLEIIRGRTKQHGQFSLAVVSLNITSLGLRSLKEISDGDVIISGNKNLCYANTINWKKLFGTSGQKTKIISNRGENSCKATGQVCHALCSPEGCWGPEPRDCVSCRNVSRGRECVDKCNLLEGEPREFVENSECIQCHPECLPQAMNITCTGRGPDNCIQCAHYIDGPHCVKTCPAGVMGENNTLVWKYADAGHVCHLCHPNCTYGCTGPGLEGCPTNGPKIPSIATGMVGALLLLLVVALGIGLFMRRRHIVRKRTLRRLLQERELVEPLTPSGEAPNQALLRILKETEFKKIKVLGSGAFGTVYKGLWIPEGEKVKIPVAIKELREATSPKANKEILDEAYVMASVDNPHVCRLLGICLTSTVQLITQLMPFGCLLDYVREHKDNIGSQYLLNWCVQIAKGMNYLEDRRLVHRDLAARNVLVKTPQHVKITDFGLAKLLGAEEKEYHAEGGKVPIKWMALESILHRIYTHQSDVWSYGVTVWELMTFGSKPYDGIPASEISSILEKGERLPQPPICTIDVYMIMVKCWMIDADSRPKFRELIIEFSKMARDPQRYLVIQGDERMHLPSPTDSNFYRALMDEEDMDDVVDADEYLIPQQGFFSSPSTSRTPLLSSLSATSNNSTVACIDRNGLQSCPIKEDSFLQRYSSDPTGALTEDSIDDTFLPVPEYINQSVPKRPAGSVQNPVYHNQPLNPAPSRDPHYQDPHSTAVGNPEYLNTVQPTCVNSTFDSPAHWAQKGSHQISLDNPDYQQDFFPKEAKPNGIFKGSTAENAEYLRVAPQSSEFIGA

Structure (SMILES)	IC50 [µg/mL]
COC(=O)c1ccc(-c2cc(Nc3ncnc(NCc4ccccc4F)n3)[nH]n2)cc1	> 4.5
O=C(O)CCc1cccc(Nc2ncnc(Nc3cc(-c4ccco4)[nH]n3)n2)c1	< 0.4
COc1ccc(Nc2ncnc(Nc3ccc(OCc4ccccc4)cc3)n2)cc1	> 4.5
Cc1ccc(Nc2ncnc(-n3cccc3)n2)cc1Cl	> 4.5
COc1cc(Nc2ncnc(-n3c(N)nc4ccccc43)n2)cc(OC)c1	> 4.5
Nc1nc2ccccc2n1-c1ncnc(Nc2ccc(N3CCOCC3)cc2)n1	3.5 to 4.5 (≈ 9.01 to 11.6 µM)
COc1ccc2c(c1)nc(NCc1ccc(F)cc1)n2-c1ncnc(Nc2cc(OC)c(OC)c(OC)c2)n1.COc1ccc2nc(NCc3ccc(F)cc3)n(-c3ncnc(Nc4cc(OC)c(OC)c(OC)c4)n3)c2c1	2.4 to 3.5
COc1cc(Nc2ncnc(-c3cccnc3CCN)n2)cc(OC)c1OC	> 4.5
O=c1[nH]c2ccccc2n1-c1ncnc(Nc2cccc(OC(F)(F)F)c2)n1	> 4.5
Nc1nc2ccccc2n1-c1ncnc(Cl)n1	> 4.5
Nc1nc2ccccc2n1-c1ncnc(Nc2cccnc2)n1	2.4 to 3.5 (≈ 7.89 to 11.5 µM)
COc1ccc(Nc2ncnc(-c3ccccc3)n2)cc1	> 4.5
COc1cc(Nc2ncnc(Nc3cc(C)c(O)cc3C)n2)cc(OC)c1OC	< 0.4
COc1cc(Nc2ncnc(-c3cccnc3NC(C)C)n2)cc(OC)c1OC	> 4.5
COc1cc(Nc2ncnc(Nc3cc(-c4cccc(C)c4)n[nH]3)n2)cc(OC)c1OC	0.4 to 2.4 (≈ 0.923 to 5.54 µM)
COc1cc(Nc2ncnc(N3CCc4ccccc4C3)n2)cc(OC)c1OC	> 4.5
OCCCNc1cc(-c2ncnc(Nc3cccc(OC(F)(F)C(F)F)c3)n2)ccn1	> 4.5
COC(=O)c1ccc(-c2cc(Nc3ncnc(NCCc4ccc(OC)cc4)n3)[nH]n2)cc1	> 4.5
COc1cc(Nc2ncnc(Nc3c(C)n(C)n(-c4ccccc4)c3=O)n2)cc(OC)c1OC	> 4.5
Cc1ccc2c(c1)CCCN2c1ncnc(Nc2cc[nH]n2)n1	0.4 to 2.4 (≈ 1.3 to 7.81 µM)
COc1cc(Nc2ncnc(-c3cccnc3NCc3cccc4ccccc34)n2)cc(OC)c1OC	> 4.5
Fc1ccc(CNc2ncccc2-c2ncnc(Nc3ccc(N4CCOCC4)cc3)n2)cc1	> 4.5

Structure (SMILES)	IC50 [µg/mL]
COc1cc(Nc2ncnc(Nc3ccc(N4CCOCC4)cc3)n2)cc(OC)c1OC	> 4.5
NCCCNc1ncnc(-c2ccccc2)n1	> 4.5
COc1cc(Nc2ncnc(-c3cccnc3NCCN3CCCCC3)n2)cc(OC)c1OC	> 4.5
Cc1ccc2c(c1)CCCN2c1ncnc(NCc2cccnc2)n1	> 4.5
CCN(CC)CCCCNc1cc(-c2ncnc(Nc3cc(OC)c(OC)c(OC)c3)n2)ccn1	> 4.5
COc1cc(Nc2ncnc(Nc3nc4ccccc4n3C)n2)cc(OC)c1OC	> 4.5
COc1cc(Nc2ncnc(Oc3ccc(OCc4ccccc4)cc3)n2)cc(OC)c1OC	> 4.5
NC(=O)c1ccccc1Nc1ncnc(-n2c(N)nc3ccccc32)n1	> 4.5
COc1cc(Nc2ncnc(-n3cc(OC(C)=O)c4ccccc43)n2)cc(OC)c1OC	> 4.5
COc1cc(CNc2ncnc(N(C)c3cccc(Cl)c3)n2)cc(OC)c1OC	2.4 to 3.5 (≈ 5.77 to 8.42 µM)
COc1cc(Nc2ncnc(-c3ccc(C)cc3)n2)cc(OC)c1OC	> 4.5
CCOc1cccc(Nc2ncnc(Nc3ccc(OC)c(OC)c3)n2)c1	> 4.5
COc1cc(Nc2ncnc(-c3ccnc(Cl)c3)n2)cc(OC)c1OC	> 4.5
COc1cc(Nc2ncnc(-n3c(C)nc4ccccc43)n2)cc(OC)c1OC	2.4 to 3.5 (≈ 6.12 to 8.92 µM)
NC(=O)c1ccc(Nc2ncnc(-c3cccnc3NCc3cccs3)n2)cc1	0.4 to 2.4 (≈ 0.991 to 5.95 µM)
COc1cc(Nc2ncnc(-n3c(NCc4ccncc4)nc4ccccc43)n2)cc(OC)c1OC	> 4.5
Nc1ncnc(Nc2ccc3c(c2)OCO3)n1	3.5 to 4.5 (≈ 15.1 to 19.5 µM)
CCOc1cccc(Nc2ncnc(Nc3cc(-c4ccc(C(=O)OC)cc4)n[nH]3)n2)c1	> 4.5
COc1cc(Nc2ncnc(N(C)c3ccc(Cl)cc3)n2)cc(OC)c1OC	< 0.4
NC(=O)c1cccc(Nc2ncnc(-n3c(N)nc4ccccc43)n2)c1	> 4.5
COc1cc(Nc2ncnc(Nc3cc(OC)c(OC)c(OC)c3)n2)cc(OC)n1	2.4 to 3.5 (≈ 5.79 to 8.45 µM)
Nc1nc2ccccc2n1-c1ncnc(Nc2ccccc2)n1	> 4.5

Structure (SMILES)	IC50 [µg/mL]
COc1cc(Nc2ncnc(N3CCCc4cc(C)ccc43)n2)cc(OC)c1OC	< 0.4
COc1cc(Nc2ncnc(Nc3cccc(F)c3)n2)cc(OC)c1OC	< 0.4
COc1cc(Nc2nc3ccccc3n2-c2ncnc(Nc3cc(OC)c(OC)c(OC)c3)n2)cc(OC)c1	> 4.5
COc1cccc(Nc2ncnc(N(C)c3cccc(Cl)c3)n2)c1	< 0.4
COc1ccc(CNc2ncnc(Nc3ccc4c(cnn4Cc4ccccc4)c3)n2)cc1OC	3.5 to 4.5 (≈ 7.49 to 9.62 µM)
Clc1cccc(Nc2ncnc(-n3cccc3)n2)c1	> 4.5
CN(c1cccc(Cl)c1)c1ncnc(NC2CCN(Cc3ccccc3)CC2)n1	0.4 to 2.4 (≈ 0.978 to 5.87 µM)
COc1cc(Nc2ncnc(-n3c(NCc4ccc(O)cc4)nc4ccccc43)n2)cc(OC)c1OC	> 4.5
CN(c1cccc(Cl)c1)c1ncnc(Nc2cccc(CNC(=O)O[C@@H]3CCOC3)c2)n1	< 0.4
CN(c1cccc(Cl)c1)c1ncnc(Nc2cccc(Br)c2)n1	< 0.4
COc1cccc(Nc2ncnc(Nc3ccc(OCc4ccccc4)cc3)n2)c1	0.4 to 2.4 (≈ 1 to 6.01 µM)
COc1ccc(CNc2ncnc(Nc3cc(-c4ccco4)[nH]n3)n2)cc1OC	0.4 to 2.4 (≈ 1.02 to 6.1 µM)
COc1cc(Nc2ncnc(-c3cccnc3NCC(C)c3ccccc3)n2)cc(OC)c1OC (centres undefined)	> 4.5
CC(C)(C)OC(=O)NCc1cccc(Nc2ncnc(Nc3cc(C(C)(C)C)n[nH]3)n2)c1	> 4.5
CN(c1cccc(Cl)c1)c1ncnc(Nc2ccc3nn(Cc4ccccc4)cc3c2)n1	< 0.4
Fc1ccc(CNc2ncccc2-c2ncnc(Nc3cccc(Cn4ccnc4)c3)n2)cc1	0.4 to 2.4 (≈ 0.884 to 5.3 µM)
COCCOc1ccc(Nc2ncnc(Nc3ccc4[nH]ccc4c3)n2)cc1OCCOC	< 0.4
COC(=O)Cc1cccc(Nc2ncnc(-n3c(NCc4ccc(OC)cc4)nc4ccccc43)n2)c1	> 4.5
COc1cc(Nc2ncnc(-n3c(NCCc4ccccc4)nc4ccccc43)n2)cc(OC)c1OC	0.4 to 2.4 (≈ 0.804 to 4.82 µM)
COc1cc(Nc2ncnc(Nc3cc(F)ccc3F)n2)cc(OC)c1OC	0.4 to 2.4 (≈ 1.03 to 6.16 µM)
COc1cc(Nc2ncnc(N(C)c3ccc4c(cnn4Cc4ccccc4)c3)n2)cc(OC)c1OC	< 0.4
COc1cc(Nc2ncnc(Nc3ccccc3C)n2)cc(OC)c1OC	2.4 to 3.5 (≈ 6.53 to 9.53 µM)

Structure (SMILES)	IC50 [µg/mL]
COc1cc(Nc2ncnc(N3c4ccccc4CCC3C)n2)cc(OC)c1OC (centres undefined)	0.4 to 2.4 (≈ 0.982 to […] µM)
COc1cc(Nc2ncnc(-n3c(NCc4cccc(F)c4)nc4ccccc43)n2)cc(OC)c1OC	3.5 to 4.5 (≈ 6.98 to 8.97 µM)
CCN(c1ccc(C)cc1)c1ncnc(Nc2cc(OC)c(OC)c(OC)c2)n1	< 0.4
Cc1cccc(Nc2ncnc(Nc3ccc(O)cc3)n2)c1	< 0.4
COc1ccc(CNc2nc3ccccc3n2-c2ncnc(Nc3cc(OC)c(OC)c(OC)c3)n2)cc1OC	2.4 to 3.5 (≈ 4.42 to 6.44 µM)
CCOC(=O)Cc1ccc(Nc2ncnc(-c3ccccc3)n2)cc1	> 4.5
COc1ccc(Nc2ncnc(NCc3ccc(C)c(Cl)c3)n2)cc1OC	> 4.5
COc1cc(Nc2ncnc(-n3c(Nc4ccccc4C(C)C)nc4ccccc43)n2)cc(OC)c1OC	> 4.5
COc1ccc(Sc2ncnc(Nc3cc(OC)c(OC)c(OC)c3)n2)cc1	> 4.5
CC(C)(C)c1cc(Nc2ncnc(Nc3ccc(CO)cc3)n2)[nH]n1	0.4 to 2.4 (≈ 1.18 to 7.07 µM)
COc1cc(NC(=O)Nc2ncnc(Nc3cc(OC)c(OC)c(OC)c3)n2)cc(OC)c1	> 4.5
CN(c1cccc(Cl)c1)c1ncnc(N(C)c2cccc(Cl)c2)n1	0.4 to 2.4 (≈ 1.11 to 6.66 µM)
COc1cc(Nc2ncnc(-c3cccnc3Nc3cccc(OCc4ccccc4)c3)n2)cc(OC)c1OC	3.5 to 4.5 (≈ 6.52 to 8.39 µM)
COc1cc(Nc2ncnc(Nc3ccc(NC(=O)OC(C)(C)C)cc3)n2)cc(OC)c1OC	> 4.5
Fc1ccc(Nc2ncnc(Nc3ccc4[nH]ccc4c3)n2)cc1Cl	< 0.4
COc1ccc(Nc2ncccc2-c2ncnc(Nc3cc(OC)c(OC)c(OC)c3)n2)c(C)c1	> 4.5
COc1cc(Nc2ncnc(-n3c(NC(=O)c4ccccc4)nc4ccccc43)n2)cc(OC)c1OC	> 4.5
CN(c1cccc(Br)c1)c1ncnc(Nc2cccc(Cc3nnn[nH]3)c2)n1	< 0.4
COc1cc(Nc2ncnc(NN3CCCC3)n2)cc(OC)c1OC	> 4.5
COc1cc(Nc2ncnc(Nc3cc(C)[nH]n3)n2)cc(OC)c1OC	3.5 to 4.5 (≈ 9.79 to 12.6 µM)
Nc1nc2ccccc2n1-c1ncnc(Nc2cccc(-c3cnco3)c2)n1	0.4 to 2.4 (≈ 1.08 to 6.48 µM)
COc1ccc(Nc2ncnc(-n3c(=O)[nH]c4ccccc43)n2)cn1	> 4.5

Structure (SMILES)	IC50 [µg/mL]
COc1cc(Nc2ncnc(Nc3ccc(Cl)cc3F)n2)cc(OC)c1OC	< 0.4
COc1cc(Nc2ncnc(-n3nc(-c4ccccc4)cc3N)n2)cc(OC)c1OC	> 4.5
Nc1nc2ccccc2n1-c1ncnc(Nc2cccc(CC(=O)O)c2)n1	> 4.5
COc1cc(Nc2ncnc(-n3ccc4cc(Cl)ccc43)n2)cc(OC)c1OC	> 4.5
COc1cc(Nc2ncnc(-n3c(N(C)C)nc4ccccc43)n2)cc(OC)c1OC	> 4.5
COc1cc(Nc2ncnc(Nc3ccc(O)cc3Cl)n2)cc(OC)c1OC	0.4 to 2.4 (≈ 0.991 to 5.94 µM)
Clc1cccc(Nc2ncnc(Nc3ccc4[nH]ncc4c3)n2)c1	< 0.4
COc1ccc(Nc2ncnc(-n3c(=O)[nH]c4ccccc43)n2)cc1OC	2.4 to 3.5 (≈ 6.59 to 9.61 µM)
COc1cc(Nc2ncnc(-c3ccncc3)n2)cc(OC)c1OC	> 4.5
COc1cc(Nc2ncnc(N3CCN(C)CC3)n2)cc(OC)c1OC	> 4.5
Cc1ccc(Nc2ncnc(N)n2)cc1	> 4.5
COc1ccccc1Nc1ncnc(-n2cccc2)n1	> 4.5
COc1cc(Nc2ncnc(-n3c(Nc4cc(OC)c(OC)c(OC)c4)nc4ccccc43)n2)cc(OC)c1OC	> 4.5
COc1ccc(Nc2ncnc(N(C)c3cccc(Cl)c3)n2)cc1OC	< 0.4
Cc1ccc2c(c1)CCCN2c1ncnc(NCCc2c[nH]c3ccccc23)n1	> 4.5
CCN(CC)c1ccc(Nc2ncnc(N3CCCc4cc(C)ccc43)n2)cc1	> 4.5
COc1cc(Nc2ncnc(N(CCO)c3ccccc3)n2)cc(OC)c1OC	< 0.4
Clc1ncnc(Nc2cc(-c3ccccc3)n[nH]2)n1	> 4.5
COc1cc(Nc2ncnc(-n3ccc4c(OC)cccc43)n2)cc(OC)c1OC	> 4.5
COc1cc(Nc2ncnc(Nc3nc(C)cs3)n2)cc(OC)c1OC	0.4 to 2.4 (≈ 1.07 to 6.41 µM)
COc1cc(Nc2ncnc(N[C@@H]3CCCc4ccccc43)n2)cc(OC)c1OC	0.4 to 2.4 (≈ 0.982 to […] µM)
